≈ marks a conversion by molar mass, not a printed value.
What was measured:
[1] = Total antioxidant capacity (TAC), method of Prieto et al.
Protocol: (§1) All in vitro biological activities of the limonoids-rich extract and the isolated compounds were assayed in triplicate at three different concentrations (50, 100, and 200 µg/mL).
The method proposed by Prieto et al.[30] was used to determine the total antioxidant capacity (TAC) expressed as mg […] equivalent per gram weight, using ascorbic acid at the same concentrations as a standard.

[2] = Iron reducing power (IRP), method of Oyaizu
α-amylase [3] = assay: α-Amylase enzyme inhibition assay; type: biochemical
Protocol: as §1
(§2) The IC50 of each tested sample was determined by plotting a curve using a series of sample concentrations against the percent of enzyme inhibition.

α-amylase [4] = assay: Native electrophoretic α-amylase isoenzyme pattern (PAGE); type: biochemical; details: standard enzyme treated with 100 µg/mL
Protocol: (§3) The relative mobility (Rf), band quantity (Qty) and band percent (B%) of the electrophoretically detected isoenzyme types on the PAGE plate were determined using the Quantity One software program (version 4.6.2). The equation proposed by Nei and Li[39] was used to calculate the percentages of similarity index (SI%) and physiological difference (Diff%).

[5] = DPPH radical scavenging activity
Protocol: as §1
The 1,1-Diphenyl-2-picryl-hydrazyl (DPPH) radical scavenging activity was evaluated using the method described by Rahman et al.[32]. Ascorbic acid was used as a positive control at the same concentrations. The inhibition percentage of the DPPH free radical was calculated. The median inhibitory concentration (IC50) of each tested sample was determined by plotting a curve using a series of sample concentrations against the percentage of DPPH inhibition.

α-glucosidase [6] = assay: α-Glucosidase enzyme inhibition assay; type: biochemical
Protocol: as §1, §2

[7] = ABTS radical scavenging assay
Protocol: as §1
The ABTS scavenging capacities of the samples were compared with that of ascorbic acid. The percent inhibition of the ABTS radical was calculated. The IC50 of each tested sample was determined by plotting a curve using a series of sample concentrations against the percent of ABTS inhibition.

[8] = Nitric oxide (NO) radical scavenging activity (Griess Illosvory reagent)
Protocol: as §1
The nitric oxide (NO) radical scavenging activity was estimated by the reaction with Griess Illosvory reagent based on the method proposed by Chakraborthy[34]. The NO scavenging capacities of the samples were compared with that of ascorbic acid. The percent inhibition of the NO radical was calculated. The IC50 of each tested sample was determined by plotting a curve using a series of sample concentrations against the percent of NO inhibition.

α-glucosidase [9] = assay: SDS-PAGE electrophoretic α-glucosidase pattern; type: biochemical; details: 100 µg/mL
Protocol: as §3

CC1(C)OC(=O)C[C@H](O)[C@]2(C)[C@H]3CC[C@@]4(C)[C@H](c5ccoc5)OC(=O)[C@H]5O[C@]54[C@]3(C)C(=O)C[C@@H]12 [Cpd2, deacetylnomilin]
TAC ([1]; sample concentration 50 µg/mL): 21.74 ± 0.06 mg gallic acid/g | TAC ([1]; sample concentration 100 µg/mL): 38.70 ± 0.10 mg gallic acid/g | TAC ([1]; sample concentration 200 µg/mL): 68.88 ± 0.19 mg gallic acid/g | IRP ([2]; sample concentration 50 µg/mL): 16.59 ± 0.06 µg/mL | IRP ([2]; sample concentration 100 µg/mL): 29.53 ± 0.10 µg/mL | IRP ([2]; sample concentration 200 µg/mL): 52.56 ± 0.19 µg/mL | IC50 against α-amylase (α-amylase [3]; Fig. 2b): 5.07 ± 0.03 µg/mL (≈ 10.7 µM) | α-Amylase Inhibition (%) (α-amylase [3]; sample concentration 50 µg/mL): 13.49 ± 0.06% | α-Amylase Inhibition (%) (α-amylase [3]; sample concentration 100 µg/mL): 24.01 ± 0.10% | α-Amylase Inhibition (%) (α-amylase [3]; sample concentration 200 µg/mL): 42.74 ± 0.19% | Change in electrophoretic α-amylase isoenzyme pattern (α-amylase [4]): slight changes | Diff% (physiological difference) of electrophoretic α-amylase pattern from the standard enzyme (α-amylase [4]): 33.33% | SI% (similarity index) of electrophoretic α-amylase pattern to the standard enzyme (α-amylase [4]): 66.67% | IC50 against DPPH radical ([5]; Fig. 2a): 6.40 ± 0.02 µg/mL (≈ 13.5 µM) | DPPH Inhibition (%) ([5]; sample concentration 50 µg/mL): 18.90 ± 0.05% | DPPH Inhibition (%) ([5]; sample concentration 100 µg/mL): 33.65 ± 0.09% | DPPH Inhibition (%) ([5]; sample concentration 200 µg/mL): 59.90 ± 0.16% | IC50 against α-glucosidase (α-glucosidase [6]; Fig. 2b): 3.89 ± 0.03 µg/mL (≈ 8.23 µM) | α-Glucosidase Inhibition (%) (α-glucosidase [6]; sample concentration 50 µg/mL): 9.34 ± 0.06% | α-Glucosidase Inhibition (%) (α-glucosidase [6]; sample concentration 100 µg/mL): 16.63 ± 0.10% | α-Glucosidase Inhibition (%) (α-glucosidase [6]; sample concentration 200 µg/mL): 29.59 ± 0.19% | IC50 against ABTS radical ([7]; Fig. 2a): 6.02 ± 0.03 µg/mL (≈ 12.7 µM) | ABTS Inhibition (%) ([7]; sample concentration 50 µg/mL): 16.59 ± 0.06% | ABTS Inhibition (%) ([7]; sample concentration 100 µg/mL): 29.53 ± 0.10% | ABTS Inhibition (%) ([7]; sample concentration 200 µg/mL): 52.56 ± 0.19% | IC50 against NO radical ([8]; Fig. 2a): 7.65 ± 0.04 µg/mL (≈ 16.2 µM) | NO Inhibition (%) ([8]; sample concentration 50 µg/mL): 13.75 ± 0.05% | NO Inhibition (%) ([8]; sample concentration 100 µg/mL): 24.48 ± 0.09% | NO Inhibition (%) ([8]; sample concentration 200 µg/mL): 43.58 ± 0.16% | melting point: 254 °C | Diff% (decrease in the quantity of the identified α-glucosidase band) (α-glucosidase [9]): 40.64% | Qty (band quantity) of the α-glucosidase band (α-glucosidase [9]): 11.08
